Like-named read-outs stand apart in the source and are kept apart here.
Test system: HTT mRNA
Experiment: Splicing assay (RT-qPCR) monitoring HTT canonical junction (CJ) and alternative junction (AJ) mRNA isoforms
Format: cell-based
Settings: A673 or K562 cells, 24 h treatment, top dose 10 uM
Protocol: Compounds described herein were used to modulate RNA transcript abundance in cells. The expression of a target mRNA was measured by detecting the formation of an exon-exon junction in the canonical transcript (CJ). A compound mediated exon-inclusion event was detected by observing an increase in formation of a new junction with an alternative exon (AJ). Real-time qPCR assays were used to detect these splicing switches and interrogate the potency of various compounds towards different target genes. A high-throughput real time quantitative PCR (RT-qPCR) assay was developed to measure these two isoforms of the mRNA (CJ and AJ) for an exemplary gene, HTT, together with a control housekeeping gene, GAPDH or GUSB or PPIA, used for normalization. Briefly, the A673 or K562 cell line was treated with various compounds described herein (e.g., compounds of Formula (I)). After treatment, the levels of the HTT mRNA targets were determined from each sample of cell lysate by cDNA synthesis followed by qPCR.
• Cells-to-CT 1-step kit: ThermoFisher A25602, Cells-to-CT lysis reagent: ThermoFisher 4391851C, TaqMan™ Fast Virus 1-Step Master Mix: ThermoFisher 4444436 • GAPDH: VIC-PL, ThermoFisher 4326317E (Assay: Hs99999905_m1)—used for K562/suspension cell lines • GUSB: VIC-PL, ThermoFisher 4326320E (Assay: Hs99999908_m1)—used for K562/suspension cell lines • PPIA: VIC-PL, ThermoFisher 4326316E (Assay: Hs99999904_m1) — used for A673/adherent cell lines
The A673 cell line was cultured in DMEM with 10% FBS. Cells were diluted with full growth media and plated in a 96-well plate (15,000 cells in 100 ul media per well). The plate was incubated at 37° C. with 5% CO2 for 24 hours to allow cells to adhere. An 11-point 3-fold serial dilution of the compounds was made in DMSO then diluted in media in an intermediate plate. Compounds were transferred from the intermediate plate to the cell plate with the top dose at a final concentration of 10 uM in the well. Final DMSO concentration was kept at or below 0.25%. The cell plate was returned to the incubator at 37° C. with 5% CO2 for an additional 24 hours.
The K562 cell line was cultured in IMDM with 10% FBS. For K562, cells were diluted with full growth media and plated in either a 96-well plate (50,000 cells in 50 uL media per well) or a 384-well plate (8,000-40,000 cells in 45 uL media per well). An 11-point 3-fold serial dilution of the compounds were made in DMSO then diluted in media in an intermediate plate. Compound was transferred from the intermediate plate to the cell plate with the top dose at a final concentration of 10 uM in the well. Final DMSO concentration was kept at or below 0.25%. Final volume was 100 uL for 96-well plate and 50 uL for 384-well plate. The cell plate was then placed in an incubator at 37° C. with 5% CO2 for 24 hours.
The cells were then gently washed with 50 uL-100 uL cold PBS before proceeding to addition of lysis buffer. 30 uL-50 uL of room temperature lysis buffer with DNAse I (and optionally RNAsin) was added to each well. Cells were shaken/mixed thoroughly at room temperature for 5-10 minutes for lysis to take place and then 3 uL-5 uL of room temperature stop solution was added and wells were shaken/mixed again. After 2-5 minutes, the cell lysate plate was transferred to ice for RT-qPCR reaction setup. The lysates could also be frozen at −80° C. for later use.
In some cases, a direct lysis buffer was used. An appropriate volume of 3× lysis buffer (10 mM Tris, 150 mM NaCl, 1.5%-2.5% Igepal and 0.1-1 U/uL RNAsin, pH 7.4) was directly added to either K562 or A673 cells in media and mixed by pipetting 3 times. The plates were then incubated at room temperature with shaking/rocking for 20-50 minutes to allow for lysis to take place. After this time, the cell lysate plate was transferred to ice to set up for the RT-qPCR reactions. The lysates could also be frozen at −80° C. for later use. […]

[1] = decrease in CJ mRNA (50% response), read-out: HTT CJ AC50
[2] = increase in AJ mRNA (50% response), read-out: HTT AJ AC50

Cc1cn2nc(-c3ccc4c(c3)CCN(C3CCNCC3)C4=O)cc(C)c2n1 [Compound 185, 6-[2,8-dimethylimidazo [1,2-b]pyridazin-6-yl]-2-(piperidin-4-yl) -3,4-dihydroisoquinolin-1-one]
AC50 [1]: 100 to 1000 nM | AC50 [2]: 1000 to 10000 nM

Cc1cn2nc(-c3ccc4c(=O)n(C5CCNCC5)ncc4c3)cc(C)c2n1 [Compound 186, 6-[2,8-dimethylimidazo[1,2-b]pyridazin-6-yl]-2-(piperidin-4-yl)phthalazin-1-one]
AC50 [1]: < 100 nM | AC50 [2]: < 100 nM

Cc1cn2nc(-c3ccc4c(c3F)CCN(C3CCNCC3)C4=O)cc(C)c2n1 [Compound 188, 6-{2,8-dimethylimidazo[1,2-b]pyridazin-6-yl}-5-fluoro-2-(piperidin-4-yl)-3,4-dihydroisoquinolin-1-one]
AC50 [1]: 1000 to 10000 nM | AC50 [2]: 1000 to 10000 nM

Cc1cn2cc(-c3ccc4c(=O)n(C5CCNCC5)ncc4c3)nc2c(C)n1 [Compound 258]
AC50 [1]: 1000 to 10000 nM | AC50 [2]: > 10000 nM

Source: patent publication US20230159496A1, “COMPOUNDS AND METHODS FOR MODULATING SPLICING” (REMIX THERAPEUTICS INC., priority 2020, published 2023)
